Results published in patent publication EP0046377A1, “Cycloalkenylcarboxamido derivatives of tetramisole, their preparation and use in medicine” (BEECHAM GROUP PLC, priority 1980, dated 1982).
Where a name gives a salt, the structure may show the parent alone.

Tests used:
Assay type in all cases: in vivo
Nematospiroides dubius = test: Oral administration to mice infected with Nematospiroides dubius; % reduction in worm numbers versus untreated infected controls; settings: % reduction in numbers of worms vs untreated infected controls; for inhibition in vivo at 5 mg/kg / inhibition in vivo at 50 mg/kg: Heligmosomoides polygyrus
Protocol: The compounds of Examples 1 to 15 were each administered orally to mice infected with Nematospiroides dubius at various dosages. Activity was calculated as % reduction in the numbers of worms in treated as opposed to control (untreated, infected) animals.

Fluke = test: Test to demonstrate fluke activity in an artificially infected sheep; settings: sheep infected with 100 metacercariae, treated orally at 30 mg/kg 4-5 months later
Protocol: A sheep was artificially infected with 100 metacercariae and 4 - 5 months later was treated, orally, with 6-[3-(3-cyclohexen-1-ylcarboxamido)-phenyl7-2,3,5,6-tetrahydroimidazo [2,1-b]thiazole at 30 mg/kg.

Sheep Roundworms = test: Activity against sheep roundworms (mixed roundworm infection)
Protocol: (§1) A single subcutaneous injection of 5 mg/kg of the laevo amide of Example 12a, as a solution of its hydrochloride (in a mixture of propylene glycol, 70%; benzyl alcohol, 4%; and made up to 100% with water), to a sheep with a mixed roundworm infection, removed >99.9% of all worms present and was 100% active against lungworm.

lungworm = test: Activity against lungworm in a sheep with mixed roundworm infection; settings: single subcutaneous injection of 5 mg/kg, solution of hydrochloride
Protocol: as §1

adult Brugia pahangi = test: Activity against Brugia pahangi in the cat (macrofilaricidal activity); settings: five daily doses at 5 mg/kg s.c.
Protocol: Five daily doses of the laevo amide of Example 12a administered at 5 mg/kg s.c. to a cat infected with adult Brugia pahangi was 100% effective against this parasite.

ascarids = test: Activity against dog parasites: ascarids; settings: single oral dose of 7.5 mg/kg
Protocol: (§2) A single oral dose of 7.5 mg/kg of the laevo amide of Example 12a to a dog was 100% effective against ascarids, hookworm and whipworm.

hookworm = test: Activity against dog parasites: hookworm; settings: single oral dose of 7.5 mg/kg
Protocol: as §2

whipworm = test: Activity against dog parasites: whipworm; settings: single oral dose of 7.5 mg/kg
Protocol: as §2

| SMILES | inhibition in vivo at 5 mg/kg (Nematospiroides dubius; Dose 5 mg/kg) | inhibition in vivo at 50 mg/kg (Nematospiroides dubius; Dose 50 mg/kg) | also measured |
| --- | --- | --- | --- |
| CC1C=CCC(C(=O)Nc2cccc(C3CN4CCSC4=N3)c2)C1 (stereo not shown) [Example 8] | 59% | 99% | – |
| O=C(Nc1cccc(C2CN3CCSC3=N2)c1)C1=CC2(CC=CCC2)CC=C1 (stereo not shown) [Example 12] | 19% | 94% | – |
| CC1(C)C=C(C(=O)Nc2cccc(C3CN4CCSC4=N3)c2)C=CC1 (stereo not shown) [Example 2, 6-[3-(3,3-dimethyl-1,5-cyclohexadien-1-ylcarboxamido)phenyl]-2,3,5,6-tetrahydroimidazo[-2,1-b]thiazole hydrochloride] | 57% | 99% | – |
| O=C(Nc1cccc(C2CN3CCSC3=N2)c1)C1C=CCCC1 (stereo not shown) [Example 5] | 65% | 100% | – |
| O=C(Nc1cccc(C2CN3C=CSC3=N2)c1)C1CC=CCC1 (stereo not shown) [Example 15] | 71% | 100% | – |
| O=C(Nc1cccc(C2CN3CCSC3=N2)c1)C1CC=CCC1 (racemic) [Example 1] | 55% | 99% | activity (post-mortem fluke worm counts) (Fluke): > 95%; Fluke egg counts (Fluke; 3-4 days after dosing): zero; removal of roundworms (Sheep Roundworms; single oral dose of 15 mg/kg, aqueous solution of hydrochloride salt): removed all roundworms present |
| O=C(Nc1cccc(C2CN3CCSC3=N2)c1)C1CC=CC1 (stereo not shown) [Example 11] | 84% | 100% | – |
| CC1C=CCCC1C(=O)Nc1cccc(C2CN3CCSC3=N2)c1 (stereo not shown) [Example 7] | 55% | 100% | – |
| O=C(Nc1cccc(C2CN3CCSC3=N2)c1)C1=CCC=CC1 (stereo not shown) [Example 3] | – | – | Activity % (Nematospiroides dubius; Dose 5 mg/kg): 58%; Activity % (Nematospiroides dubius; Dose 50 mg/kg): 100% |
| O=C(Nc1cccc(C2CN3CCSC3=N2)c1)C1CC=CCC1 (stereo not drawn) [Example 14a, 6-[3-(3-cyclohexen-1-ylcarboxamido)phenyl] -2,3,5,6-tetrahydroimidazo[2,l-b]thiazole] | – | – | Activity % (Nematospiroides dubius; Dose 2.5 mg/kg): 100%; Activity % (Nematospiroides dubius; Dose 10 mg/kg): 100%; worms removed (Sheep Roundworms; single subcutaneous injection of 5 mg/kg, solution of hydrochloride in propylene glycol 70%/benzyl alcohol 4%/water): > 99.9%; active against lungworm (lungworm): 100%; effective against Brugia pahangi (adult Brugia pahangi): 100%; effective against ascarids (ascarids): 100%; effective against hookworm (hookworm): 100%; effective against whipworm (whipworm): 100% |
| O=C(Nc1cccc(C2CN3CCSC3=N2)c1)C1=CCCCC1 (stereo not shown) [Example 9] | 76% | 99% | – |
| O=C(Nc1cccc(C2CN3CCSC3=N2)c1)C1=CC2(CC=C1)CCCC2 (stereo not shown) [Example 6] | 45% | 100% | – |
| O=C(Nc1cccc(C2CN3CCSC3=N2)c1)C1=CCCCCC1 (stereo not shown) [Example 10] | 90% | 100% | – |
| O=C(Nc1cccc(C2CN3CCSC3=N2)c1)C1C=CCC1 (stereo not shown) [Example 4, 6-[3-(2-cyclopenten-1-ylcarboxamido)phenyl]-2,3,5,6-tetrahydroimidazo[2,1-b]thiazole] | 100% | 100% | – |
